Settings: Liquid, Vibrating tube method

CCCOCCC [dipropyl ether]
Settings | mass density [kg/m3]
283.15 K, 100 kPa | 757.39
283.15 K, 5000 kPa | 762.38
283.15 K, 10000 kPa | 767.05
283.15 K, 15000 kPa | 771.45
283.15 K, 20000 kPa | 775.62
283.15 K, 25000 kPa | 779.52
283.15 K, 30000 kPa | 783.28
283.15 K, 35000 kPa | 786.9
283.15 K, 40000 kPa | 790.38
283.15 K, 45000 kPa | 793.67
283.15 K, 50000 kPa | 796.87
283.15 K, 55000 kPa | 800.02
283.15 K, 60000 kPa | 802.99
283.15 K, 65000 kPa | 805.87
288.15 K, 100 kPa | 752.52
288.15 K, 5000 kPa | 757.69
288.15 K, 10000 kPa | 762.5
288.15 K, 15000 kPa | 767.01
288.15 K, 20000 kPa | 771.21
288.15 K, 25000 kPa | 775.22
288.15 K, 30000 kPa | 779.05
288.15 K, 35000 kPa | 782.73
288.15 K, 40000 kPa | 786.26
288.15 K, 45000 kPa | 789.68
288.15 K, 50000 kPa | 792.99
288.15 K, 55000 kPa | 796.16
288.15 K, 60000 kPa | 799.26
288.15 K, 65000 kPa | 802.29
293.15 K, 100 kPa | 747.63
293.15 K, 5000 kPa | 752.98
293.15 K, 10000 kPa | 757.94
293.15 K, 15000 kPa | 762.58
293.15 K, 20000 kPa | 766.89
293.15 K, 25000 kPa | 771.01
293.15 K, 30000 kPa | 774.94
293.15 K, 35000 kPa | 778.69
293.15 K, 40000 kPa | 782.3
293.15 K, 45000 kPa | 785.81
293.15 K, 50000 kPa | 789.18
293.15 K, 55000 kPa | 792.44
293.15 K, 60000 kPa | 795.56
293.15 K, 65000 kPa | 798.64
298.15 K, 100 kPa | 742.71
298.15 K, 5000 kPa | 748.24
298.15 K, 10000 kPa | 753.37
298.15 K, 15000 kPa | 758.15
298.15 K, 20000 kPa | 762.57
298.15 K, 25000 kPa | 766.81
298.15 K, 30000 kPa | 770.85
298.15 K, 35000 kPa | 774.71
298.15 K, 40000 kPa | 778.42
298.15 K, 45000 kPa | 781.98
298.15 K, 50000 kPa | 785.42
298.15 K, 55000 kPa | 788.74
298.15 K, 60000 kPa | 791.97
298.15 K, 65000 kPa | 795.06
303.15 K, 100 kPa | 737.77
303.15 K, 5000 kPa | 743.49
303.15 K, 10000 kPa | 748.78
303.15 K, 15000 kPa | 753.68
303.15 K, 20000 kPa | 758.26
303.15 K, 25000 kPa | 762.61
303.15 K, 30000 kPa | 766.76
303.15 K, 35000 kPa | 770.7
303.15 K, 40000 kPa | 774.48
303.15 K, 45000 kPa | 778.13
303.15 K, 50000 kPa | 781.64
303.15 K, 55000 kPa | 785.01
303.15 K, 60000 kPa | 788.28
303.15 K, 65000 kPa | 791.45
308.15 K, 100 kPa | 732.8
308.15 K, 5000 kPa | 738.69
308.15 K, 10000 kPa | 744.18
308.15 K, 15000 kPa | 749.22
308.15 K, 20000 kPa | 753.95
308.15 K, 25000 kPa | 758.41
308.15 K, 30000 kPa | 762.65
308.15 K, 35000 kPa | 766.7
308.15 K, 40000 kPa | 770.6
308.15 K, 45000 kPa | 774.31
308.15 K, 50000 kPa | 777.92
308.15 K, 55000 kPa | 781.37
308.15 K, 60000 kPa | 784.7
308.15 K, 65000 kPa | 787.86
313.15 K, 100 kPa | 727.8
313.15 K, 5000 kPa | 733.9
313.15 K, 10000 kPa | 739.57
313.15 K, 15000 kPa | 744.77
313.15 K, 20000 kPa | 749.62
313.15 K, 25000 kPa | 754.2
313.15 K, 30000 kPa | 758.55
313.15 K, 35000 kPa | 762.71
313.15 K, 40000 kPa | 766.68
313.15 K, 45000 kPa | 770.47
313.15 K, 50000 kPa | 774.17
313.15 K, 55000 kPa | 777.67
313.15 K, 60000 kPa | 781.06
313.15 K, 65000 kPa | 784.29
318.15 K, 100 kPa | 722.77
318.15 K, 5000 kPa | 729.04
318.15 K, 10000 kPa | 735.01
318.15 K, 15000 kPa | 740.33
318.15 K, 20000 kPa | 745.32
318.15 K, 25000 kPa | 750.04
318.15 K, 30000 kPa | 754.51
318.15 K, 35000 kPa | 758.76
318.15 K, 40000 kPa | 762.84
318.15 K, 45000 kPa | 766.72
318.15 K, 50000 kPa | 770.47
318.15 K, 55000 kPa | 774.07
318.15 K, 60000 kPa | 777.53
318.15 K, 65000 kPa | 780.73
323.15 K, 100 kPa | 717.7
323.15 K, 5000 kPa | 724.25
323.15 K, 10000 kPa | 730.31
323.15 K, 15000 kPa | 735.84
323.15 K, 20000 kPa | 741
323.15 K, 25000 kPa | 745.84
323.15 K, 30000 kPa | 750.43
323.15 K, 35000 kPa | 754.79
323.15 K, 40000 kPa | 758.96
323.15 K, 45000 kPa | 762.93
323.15 K, 50000 kPa | 766.76
323.15 K, 55000 kPa | 770.41
323.15 K, 60000 kPa | 773.95
323.15 K, 65000 kPa | 777.21
328.15 K, 100 kPa | 712.59
328.15 K, 5000 kPa | 719.28
328.15 K, 10000 kPa | 725.68
328.15 K, 15000 kPa | 731.37
328.15 K, 20000 kPa | 736.67
328.15 K, 25000 kPa | 741.66
328.15 K, 30000 kPa | 746.37
328.15 K, 35000 kPa | 750.85
328.15 K, 40000 kPa | 755.1
328.15 K, 45000 kPa | 759.16
328.15 K, 50000 kPa | 763.06
328.15 K, 55000 kPa | 766.79
328.15 K, 60000 kPa | 770.38
328.15 K, 65000 kPa | 773.71
333.15 K, 100 kPa | 707.45
333.15 K, 5000 kPa | 714.57
333.15 K, 10000 kPa | 721.03
333.15 K, 15000 kPa | 726.88
333.15 K, 20000 kPa | 732.34
333.15 K, 25000 kPa | 737.47
333.15 K, 30000 kPa | 742.3
333.15 K, 35000 kPa | 746.89
333.15 K, 40000 kPa | 751.24
333.15 K, 45000 kPa | 755.35
333.15 K, 50000 kPa | 759.32
333.15 K, 55000 kPa | 763.16
333.15 K, 60000 kPa | 766.84
333.15 K, 65000 kPa | 770.23
